In PubChem BioAssay AID1918930 (Molecular Pharmacology Branch, DTP, NCI, 2023):
pIC50: −log10 of the molar value. Several values for one entry are separate records, joined by “and”; a condition that tells them apart may be missing. Equal values may be shown once.

System: 233499-124-R-J3-PDC complex spheroid viability, % test/control
Assay: Anticancer human tumor 233499-124-R-J3-PDC patient-derived colon adenocarcinoma cell line growth inhibition
Conditions: for viability, T/C: stronger effect = lower value
Method in brief: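 Multicellular complex spheroids of tumor cells with human endothelial cells (HUVEC) and mesenchymal stem cells; the LSD1 inhibitor iadademstat was combined with standard-of-care or investigational agents. Top concentration at or near clinical Cmax, half-log dilutions; final DMSO ≤0.25%.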

[1] = curve of first compound, second compound 0.1 µM
[2] = curve of first compound, second compound 0.316 µM
[3] = curve of first compound, second compound 1 µM
[4] = curve of first compound, second compound 3.16 µM
[5] = curve of first compound, second compound 10 µM
[6] = second compound 0.1 µM, first compound 0.00316 µM
[7] = second compound 0.1 µM, first compound 0.01 µM
[8] = second compound 0.1 µM, first compound 0.0316 µM
[9] = second compound 0.1 µM, first compound 0.1 µM
[10] = second compound 0.1 µM, first compound 0.316 µM
[11] = second compound 0.1 µM, first compound 1 µM
[12] = second compound 0.316 µM, first compound 0.00316 µM
[13] = second compound 0.316 µM, first compound 0.01 µM
[14] = second compound 0.316 µM, first compound 0.0316 µM
[15] = second compound 0.316 µM, first compound 0.1 µM
[16] = second compound 0.316 µM, first compound 0.316 µM
[17] = second compound 0.316 µM, first compound 1 µM
[18] = second compound 1 µM, first compound 0.00316 µM
[19] = second compound 1 µM, first compound 0.01 µM
[20] = second compound 1 µM, first compound 0.0316 µM
[21] = second compound 1 µM, first compound 0.1 µM
[22] = second compound 1 µM, first compound 0.316 µM
[23] = second compound 1 µM, first compound 1 µM
[24] = second compound 3.16 µM, first compound 0.00316 µM
[25] = second compound 3.16 µM, first compound 0.01 µM
[26] = second compound 3.16 µM, first compound 0.0316 µM
[27] = second compound 3.16 µM, first compound 0.1 µM
[28] = second compound 3.16 µM, first compound 0.316 µM
[29] = second compound 3.16 µM, first compound 1 µM
[30] = second compound 10 µM, first compound 0.00316 µM
[31] = second compound 10 µM, first compound 0.01 µM
[32] = second compound 10 µM, first compound 0.0316 µM
[33] = second compound 10 µM, first compound 0.1 µM
[34] = second compound 10 µM, first compound 0.316 µM
[35] = second compound 10 µM, first compound 1 µM
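Also: spheroids exposed to agents for one week before readout.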

O=C(C=Cn1cnc(-c2cc(C(F)(F)F)cc(C(F)(F)F)c2)n1)NNc1cnccn1 + NC1CCC(NC2CC2c2ccccc2)CC1
pIC50 [1]: 6.99
pIC50 [2]: 6.84
pIC50 [3]: 7.07
pIC50 [4]: 6.89
pIC50 [5]: 7.07
viability, T/C [6]: 106%
viability, T/C [7]: 102%
viability, T/C [8]: 99.5%
viability, T/C [9]: 49.5%
viability, T/C [10]: 31.1%
viability, T/C [11]: 19.8%
viability, T/C [12]: 119%
viability, T/C [13]: 109%
viability, T/C [14]: 97.4%
viability, T/C [15]: 59.2%
viability, T/C [16]: 28.2%
viability, T/C [17]: 11.7%
viability, T/C [18]: 115%
viability, T/C [19]: 106%
viability, T/C [20]: 106%
viability, T/C [21]: 40%
viability, T/C [22]: 30.9%
viability, T/C [23]: 12%
viability, T/C [24]: 99.3%
viability, T/C [25]: 90.8%
viability, T/C [26]: 91.8%
viability, T/C [27]: 54.9%
viability, T/C [28]: 27.8%
viability, T/C [29]: 14.2%
viability, T/C [30]: 96.8%
viability, T/C [31]: 97.3%
viability, T/C [32]: 87.3%
viability, T/C [33]: 43.2%
viability, T/C [34]: 22%
viability, T/C [35]: 15.8%

O=C(C=Cn1cnc(-c2cc(C(F)(F)F)cc(C(F)(F)F)c2)n1)NNc1cnccn1
viability, T/C (compound 0.00316 µM): 102% and 76.2%
viability, T/C (compound 0.01 µM): 106% and 79.7%
viability, T/C (compound 0.0316 µM): 98.9% and 61.4%
viability, T/C (compound 0.1 µM): 54.3% and 71.6%
viability, T/C (compound 0.316 µM): 46.3% and 88.5%
viability, T/C (compound 1 µM): 11.6% and 62%
pIC50 (curve of compound): 6.72 and < 6.00

CC1(C)CCC(CN2CCN(c3ccc(C(=O)NS(=O)(=O)c4ccc(NCC5CCOCC5)c([N+](=O)[O-])c4)c(Oc4cnc5[nH]ccc5c4)c3)CC2)=C(c2ccc(Cl)cc2)C1 + NC1CCC(NC2CC2c2ccccc2)CC1
pIC50 [1]: 5.12
pIC50 [2]: 5.19
pIC50 [3]: 5.05
pIC50 [4]: 5.12
pIC50 [5]: 5.14
viability, T/C [8]: 119%
viability, T/C [9]: 127%
viability, T/C [10]: 132%
viability, T/C [11]: 116%
viability, T/C (second compound 0.1 µM, first compound 3.16 µM): 143%
viability, T/C (second compound 0.1 µM, first compound 10 µM): 25.2%
viability, T/C [14]: 111%
viability, T/C [15]: 109%
viability, T/C [16]: 114%
viability, T/C [17]: 105%
viability, T/C (second compound 0.316 µM, first compound 3.16 µM): 132%
viability, T/C (second compound 0.316 µM, first compound 10 µM): 10.5%
viability, T/C [20]: 95.7%
viability, T/C [21]: 91.2%
viability, T/C [22]: 97.8%
viability, T/C [23]: 104%
viability, T/C (second compound 1 µM, first compound 3.16 µM): 118%
viability, T/C (second compound 1 µM, first compound 10 µM): 44.8%
viability, T/C [26]: 88.8%
viability, T/C [27]: 99.8%
viability, T/C [28]: 83%
viability, T/C [29]: 98.9%
viability, T/C (second compound 3.16 µM, first compound 3.16 µM): 96.6%
viability, T/C (second compound 3.16 µM, first compound 10 µM): 36%
viability, T/C [32]: 87.4%
viability, T/C [33]: 86.5%
viability, T/C [34]: 85.2%
viability, T/C [35]: 93.1%
viability, T/C (second compound 10 µM, first compound 3.16 µM): 101%
viability, T/C (second compound 10 µM, first compound 10 µM): 34.5%

CC[C@@]1(O)C(=O)OCc2c1cc1n(c2=O)Cc2cc3c(CN(C)C)c(O)ccc3nc2-1 + NC1CCC(NC2CC2c2ccccc2)CC1
pIC50 [1]: < 7.00
pIC50 [2]: 7.50
pIC50 [3]: < 7.00
pIC50 [4]: < 7.00
pIC50 [5]: < 7.00
viability, T/C (second compound 0.1 µM, first compound 0.000316 µM): 104%
viability, T/C (second compound 0.1 µM, first compound 0.001 µM): 76.6%
viability, T/C [6]: 79.7%
viability, T/C [7]: 64%
viability, T/C [8]: 71.9%
viability, T/C [9]: 87.9%
viability, T/C (second compound 0.316 µM, first compound 0.000316 µM): 93.7%
viability, T/C (second compound 0.316 µM, first compound 0.001 µM): 80.1%
viability, T/C [12]: 88.9%
viability, T/C [13]: 47.5%
viability, T/C [14]: 54.5%
viability, T/C [15]: 66.1%
viability, T/C (second compound 1 µM, first compound 0.000316 µM): 65.9%
viability, T/C (second compound 1 µM, first compound 0.001 µM): 63.9%
viability, T/C [18]: 50.3%
viability, T/C [19]: 51.5%
viability, T/C [20]: 71.2%
viability, T/C [21]: 63.8%
viability, T/C (second compound 3.16 µM, first compound 0.000316 µM): 92%
viability, T/C (second compound 3.16 µM, first compound 0.001 µM): 74.9%
viability, T/C [24]: 56.8%
viability, T/C [25]: 53.6%
viability, T/C [26]: 58.8%
viability, T/C [27]: 69.9%
viability, T/C (second compound 10 µM, first compound 0.000316 µM): 76.9%
viability, T/C (second compound 10 µM, first compound 0.001 µM): 82.9%
viability, T/C [30]: 68.4%
viability, T/C [31]: 48%
viability, T/C [32]: 60.8%
viability, T/C [33]: 80.7%
